The target of assay [1] is Sodium channel protein type 9 subunit alpha (Homo sapiens, UniProt Q15858). The assay can be described thus: Inhibition of human Nav1.7 expressed in HEK293 cells by electrophysiology assay. Type of assay: cell-based.
The species entered for another assay is Homo sapiens. The assay can be described thus: Selectivity ratio of IC50 for human Nav1.5 to IC50 for human Nav1.7.

As a reminder, the IC50 is the concentration at which inhibition is half-maximal. The low end stands for inhibition by little substance, the high end for a need for much substance.

Sodium channel protein type 9 subunit alpha, sequence (Q15858 whole entry): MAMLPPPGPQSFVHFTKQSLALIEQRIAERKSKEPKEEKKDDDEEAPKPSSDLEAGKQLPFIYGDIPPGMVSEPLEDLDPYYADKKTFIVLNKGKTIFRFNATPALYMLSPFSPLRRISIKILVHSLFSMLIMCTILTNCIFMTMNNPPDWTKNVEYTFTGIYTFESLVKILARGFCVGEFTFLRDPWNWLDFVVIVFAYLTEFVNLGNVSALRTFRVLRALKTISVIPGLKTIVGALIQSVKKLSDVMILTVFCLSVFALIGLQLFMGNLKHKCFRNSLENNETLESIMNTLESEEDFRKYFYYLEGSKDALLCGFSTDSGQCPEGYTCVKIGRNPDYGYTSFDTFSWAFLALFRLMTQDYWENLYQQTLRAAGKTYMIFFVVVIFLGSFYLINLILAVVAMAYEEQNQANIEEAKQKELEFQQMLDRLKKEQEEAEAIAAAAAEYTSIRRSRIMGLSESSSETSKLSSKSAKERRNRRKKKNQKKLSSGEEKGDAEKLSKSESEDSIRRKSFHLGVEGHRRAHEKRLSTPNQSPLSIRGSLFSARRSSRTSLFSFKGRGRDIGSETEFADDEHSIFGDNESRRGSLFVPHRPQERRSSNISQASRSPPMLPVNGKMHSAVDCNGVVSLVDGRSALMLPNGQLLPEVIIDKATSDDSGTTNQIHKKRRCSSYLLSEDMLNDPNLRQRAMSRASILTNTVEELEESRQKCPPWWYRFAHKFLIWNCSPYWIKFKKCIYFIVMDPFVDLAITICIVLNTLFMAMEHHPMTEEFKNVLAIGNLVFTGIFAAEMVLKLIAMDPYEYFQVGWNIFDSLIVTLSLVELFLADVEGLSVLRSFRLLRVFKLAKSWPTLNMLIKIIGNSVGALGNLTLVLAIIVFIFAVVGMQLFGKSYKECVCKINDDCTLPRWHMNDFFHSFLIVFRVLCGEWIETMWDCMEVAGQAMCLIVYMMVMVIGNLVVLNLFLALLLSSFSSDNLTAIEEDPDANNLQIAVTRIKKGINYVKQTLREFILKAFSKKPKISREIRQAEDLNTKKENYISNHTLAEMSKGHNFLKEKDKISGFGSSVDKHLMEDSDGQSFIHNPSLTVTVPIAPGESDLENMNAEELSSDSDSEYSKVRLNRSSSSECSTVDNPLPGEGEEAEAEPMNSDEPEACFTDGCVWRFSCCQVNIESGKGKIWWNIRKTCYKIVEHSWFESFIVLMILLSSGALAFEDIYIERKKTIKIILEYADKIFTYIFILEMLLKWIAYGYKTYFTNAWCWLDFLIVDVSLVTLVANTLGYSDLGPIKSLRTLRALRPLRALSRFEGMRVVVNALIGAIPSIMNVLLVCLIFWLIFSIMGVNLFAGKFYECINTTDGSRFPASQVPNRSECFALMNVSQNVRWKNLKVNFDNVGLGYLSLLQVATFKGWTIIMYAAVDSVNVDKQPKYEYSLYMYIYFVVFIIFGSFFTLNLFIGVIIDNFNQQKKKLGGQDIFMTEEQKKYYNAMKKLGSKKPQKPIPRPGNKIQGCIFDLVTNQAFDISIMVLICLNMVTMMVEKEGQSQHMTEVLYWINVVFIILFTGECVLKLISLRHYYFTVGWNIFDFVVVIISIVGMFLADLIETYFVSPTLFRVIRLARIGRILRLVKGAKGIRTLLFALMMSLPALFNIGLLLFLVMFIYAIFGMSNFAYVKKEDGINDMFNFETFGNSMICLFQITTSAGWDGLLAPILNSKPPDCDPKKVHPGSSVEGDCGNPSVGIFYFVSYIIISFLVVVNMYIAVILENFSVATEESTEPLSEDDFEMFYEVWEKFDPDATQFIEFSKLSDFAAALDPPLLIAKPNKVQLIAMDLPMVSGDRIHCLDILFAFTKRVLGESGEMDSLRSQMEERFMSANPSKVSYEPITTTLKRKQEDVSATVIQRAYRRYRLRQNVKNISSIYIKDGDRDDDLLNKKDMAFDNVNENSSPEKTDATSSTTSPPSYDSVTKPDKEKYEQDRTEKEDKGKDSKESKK

In turn, `CN[C@H](CNc1cc(F)c(S(=O)(=O)Nc2nccs2)cc1Cl)Cc1cccc(Cl)c1` came in with an IC50 in assay [1] of 15 nM. Besides, in the assay listed under Homo sapiens, the Ratio IC50 is more than 1380.

In assay [1], `Cc1nn(-c2cnc(OCC(C)C)c(Cl)c2)c2ccc(C(=O)NS(C)(=O)=O)cc12` [PF-05241328] showed a 50% inhibitory concentration (IC50) of 31 nM.

On to `O=C(O)[C@@H]1C[C@@H](F)CN1C(=O)c1cc(C2CC2)c(OCC2CCN(Cc3c(Cl)cccc3Cl)CC2)cc1F`, for which the Ratio IC50 in the assay filed under Homo sapiens is more than 150.
